How the values were obtained:
[1] = dissolution of CBD from a gelatine capsule in 2% RM-β-CD dissolution media; type: physicochemical; conditions: gelatine capsule with 1.0 mg pure CBD and 99 mg lactose, pH 6.6, n=6
[2] = 40% solution of HP-β-CD; cited from earlier work
[3] = oral administration, depending on the drug vehicle employed; cited from earlier work

Row | Structure (SMILES) | time in which CBD is not fully dissolved [1] [h] | THC solution concentration obtained [2] [mg/mL] | bioavailability [3]
1 | C=C(C)[C@@H]1CCC(C)=C[C@H]1c1c(O)cc(CCCCC)cc1O [CBD, cannabidiol] | > 3 |  | 
2 | CCCCCc1cc(O)c2c(c1)OC(C)(C)[C@@H]1CCC(C)=C[C@@H]21 [THC, Δ^9-tetrahydrocannabinol] |  | 1 | 6-20%

Source: patent US7592328B2, “Natural cyclodextrin complexes” (Pedipharm Oy, priority 2002, dated 2009)
